Target: T1, R87D THIK-1 single channels (Homo sapiens, UniProt Q9HB14, R87D)
T1 construct: expressed in transfected cells; host or cells: Xenopus oocytes (mRNA injection)
Experiment: Single-channel excised patch recordings of R87D THIK-1 at -100 mV with halothane
Format: cell-based
Protocol: Two-electrode voltage–clamp (TEVC) studies were performed in Xenopus oocytes. All animal use conformed to the Guide for the Care and Use of Laboratory Animals (NIH Publication 85–23), and all experiments using Xenopus toads were approved by the local ethics panels. Oocytes were stored at 17 °C in ND96 recording solution composed of (in mM): 96 NaCl, 2 KCl, 1.8 CaCl2, 1 MgCl2, 5 HEPES (pH 7.5 adjusted with NaOH and HCl), supplemented with Na-pyruvate (275 mg L^–1), theophylline (90 mg L^–1) and gentamicin (50 mg L^–1). Oocytes were injected with 1 ng mRNA for WT or mutant channels, and were incubated for 24–48 h at 17 °C. Two-electrode voltage clamp recordings were then performed as previously described[42],[43]. […] Currents were recorded with an EPC10 amplifier (HEKA Electronics) and sampled at 10 kHz or higher, with filtering set to 3 kHz (–3 dB) or higher, as appropriate for sampling rate. For measurements of GPCR activation, whole-cell currents were recorded for THIK-1 in transiently transfected HEK-293 cells. […] Single-channel currents were recorded with an Axopatch 200B amplifier through a Digidata 1440A digitizer (Molecular Devices). Data were filtered at 2 kHz and recorded at a 200-kHz sampling rate with the program Clampex (Molecular Devices). […]

T1 sequence (Q9HB14 whole entry R87D): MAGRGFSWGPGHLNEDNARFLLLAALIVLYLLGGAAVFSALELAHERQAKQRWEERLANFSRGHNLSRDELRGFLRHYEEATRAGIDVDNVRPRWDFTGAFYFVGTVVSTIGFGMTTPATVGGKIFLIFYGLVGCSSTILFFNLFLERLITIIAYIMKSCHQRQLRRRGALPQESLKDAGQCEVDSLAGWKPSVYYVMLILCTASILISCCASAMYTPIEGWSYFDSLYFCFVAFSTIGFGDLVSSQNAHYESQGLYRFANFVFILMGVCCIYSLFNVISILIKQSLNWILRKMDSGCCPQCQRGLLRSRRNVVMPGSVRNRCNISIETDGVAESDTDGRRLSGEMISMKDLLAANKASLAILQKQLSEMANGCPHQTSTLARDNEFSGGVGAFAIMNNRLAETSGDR

decrease in activity (0.4% halothane): 30%
decrease in activity (1% halothane): 75%
Structure (SMILES): FC(F)(F)C(Cl)Br (centres unmarked) [halothane]

From PMC12263422, “Cryo-EM structure of the human THIK-1 K2P K^+ channel reveals a lower Y gate regulated by lipids and anesthetics” (Nature Structural & Molecular Biology, 2025)
